Source: patent US9845322B2 (Hoffmann-La Roche Inc., priority 2016, dated 2017)
Where two headings read alike, the source gives them in different places.

Test system: HBsAg secretion in HepG2.2.15 cells
Assay: HBsAg assay (chemiluminescence immunoassay of secreted HBsAg in culture supernatant)
Format: cell-based, HBV
Settings: concentration at which HBsAg secretion was reduced by 50% compared to the no drug control, read-out: IC50 (HBsAg assay)
Protocol: HepG2.2.15 cells (Acs et al. Proc Natl Acad Sci USA, 84, (1987), 4641-4), a constitutively HBV-expressing cell line were cultured in DMEM+Glutamax-I medium (Invitrogen, Carlsbad, Calif., USA), supplemented with 10% fetal bovine serum (Invitrogen) and G418 (Invitrogen) at a final concentration of 200 mg/L and maintained in 5% CO2 at 37° C.
HepG2.2.15 cells were seeded in duplicate into white, 96-well plates at 1.5×10^4 cells/well. The cells were treated with a three-fold serial dilution series of the compounds in DMSO. The final DMSO concentration in all wells was 1% and DMSO was used as no drug control.
The HBsAg chemiluminescence immunoassay (CLIA) kit (Autobio Diagnostics Co., Zhengzhou, China, Catalog number: CL0310-2) was used to measure the levels of secreted HBV antigens semi-quantitatively. For the detection 50 μL/well culture supernatant was used and HBsAg was quantified using HBsAg chemiluminescence immunoassay (CLIA) kit (Autobio Diagnostics Co., Zhengzhou, China, Catalog number: CL0310-2), 50 μL of the supernatant was transferred to the CLIA assay plate and 50 μL of enzyme conjugate reagent was added into each well. The plates were sealed and gently agitated for 1 hour at room temperature. The supernatant-enzyme-mixture was discarded and wells were washed 6 times with 300 μL of PBS. The residual liquid was removed by plating the CLIA plate […] on absorbent tissue paper. 25 μL of substrates A and B were added to each well. Luminance was measured using a luminometer (Mithras LB 940 Multimode Microplate Reader) after 10 minutes incubation. Dose-response curves were generated and the IC50 value was extrapolated by using the E-WorkBook Suite (ID Business Solutions Ltd., Guildford, UK). The IC50 was defined as the compound concentration (or conditioned media log dilution) at which HBsAg secretion was reduced by 50% compared to the no drug control.
The compounds according to formula I were tested for their capacity to inhibit HBsAg as described herein.

[1] = Hepatitis B virus, HepG2.2.15, HepG2.2.15 cells

| SMILES | IC50 [1] | IC50 (HepG2.2.15 cells) |
| --- | --- | --- |
| CC1c2cnc(-c3ncccn3)nc2CCN1c1cc(F)c(F)c(OCC(=O)O)c1 (stereo not shown) [Example 65, 2-[2,3-difluoro-5-(5-methyl-2-pyrimidin-2-yl-7,8-dihydro-5H-pyrido[4,3-d]pyrimidin-6-yl)phenoxy]acetic acid] | 16700 nM |  |
| COc1cc(N2CCc3nc(-c4ccccn4)ncc3C2C)cc(F)c1F (stereo not shown) [Example 5, 6-(3,4-difluoro-5-methoxy-phenyl)-5-methyl-2-(2-pyridyl)-7,8-dihydro-5H-pyrido[4,3-d]pyrimidine] |  | 38 nM |
| CC1c2cnc(-c3ncccn3)nc2CCN1c1cc(N2CCCC2)cc(F)n1 (stereo not shown) [Example 198, 6-(6-fluoro-4-pyrrolidin-1-yl-2-pyridyl)-5-methyl-2-pyrimidin-2-yl-7,8-dihydro-5H-pyrido[4,3-d]pyrimidine] |  | 4 nM |
| CC1c2cnc(-c3ncccn3)nc2CCN1c1cc(OCC2CC2)cc(F)n1 (stereo not shown) [Example 152, 6-[4-(cyclopropylmethoxy)-6-fluoro-2-pyridyl]-5-methyl-2-pyrimidin-2-yl-7,8-dihydro-5H-pyrido[4,3-d]pyrimidine] | 11 nM |  |
| CC1c2cnc(-c3ccccn3)nc2CCN1c1cc(F)c(F)c(OCCS(C)(=O)=O)c1 (stereo not shown) [Example 26, 6-[3,4-difluoro-5-(2-methylsulfonylethoxy)phenyl]-5-methyl-2-(2-pyridyl)-7,8-dihydro-5H-pyrido[4,3-d]pyrimidine] | 78 nM |  |
| CC1c2cnc(-c3ccccn3)nc2CCN1c1cc(F)cc(N(C)C)n1 (stereo not shown) [Example 217, 4-fluoro-N,N-dimethyl-6-[5-methyl-2-(2-pyridyl)-7,8-dihydro-5H-pyrido[4,3-d]pyrimidin-6-yl]pyridin-2-amine] | 28 nM |  |
| CC1c2cnc(-c3ncccn3)nc2CCN1c1cc(F)c(F)c(OCCCN2CCOCC2=O)c1 (stereo not shown) [Example 80] | 71 nM |  |
| CC1c2cnc(-c3ncccn3)nc2CCN1c1cc(O)c(F)c(F)c1 (stereo not shown) [Example 44, 2,3-difluoro-5-(5-methyl-2-pyrimidin-2-yl-7,8-dihydro-5H-pyrido[4,3-d]pyrimidin-6-yl)phenol] |  | 494 nM |
| CC1c2cnc(-c3ncccn3)nc2CCN1c1cc(OCC2CS(=O)(=O)C2)cc(F)n1 (stereo not shown) [Example 195, 3-[[2-fluoro-6-(5-methyl-2-pyrimidin-2-yl-7,8-dihydro-5H-pyrido[4,3-d]pyrimidin-6-yl)-4-pyridyl]oxymethyl]thietane 1,1-dioxide] | 55 nM |  |
| CC1c2cnc(-c3ncccn3)nc2CCN1c1cc(F)c(F)c(OCCC2CN(C(=O)OC(C)(C)C)C2)c1 (stereo not shown) [Example 115, tert-butyl 3-[2-[2,3-difluoro-5-(5-methyl-2-pyrimidin-2-yl-7,8-dihydro-5H-pyrido[4,3-d]pyrimidin-6-yl)phenoxy]ethyl]azetidine-1-carboxylate] | 12 nM |  |
| COc1cc(N2CCc3nc(-c4ncccn4)ncc3C2C)cc(Cl)c1F (stereo not shown) [Example 41, 6-(3-chloro-4-fluoro-5-methoxy-phenyl)-5-methyl-2-pyrimidin-2-yl-7,8-dihydro-5H-pyrido[4,3-d]pyrimidine] |  | 38 nM |
| CC1c2cnc(-c3ncccn3)nc2CCN1c1cc(F)c(F)c(OCCCN2CCNC2=O)c1 (stereo not shown) [Example 113, 1-[3-[2,3-difluoro-5-(5-methyl-2-pyrimidin-2-yl-7,8-dihydro-5H-pyrido[4,3-d]pyrimidin-6-yl)phenoxy]propyl]imidazolidin-2-one] | 94 nM |  |
| Cc1cc(N(C)C)nc(N2CCc3nc(-c4ncccn4)ncc3[C@H]2C)n1 [Example 213, (−)-N,N,6-trimethyl-2-[5-methyl-2-pyrimidin-2-yl-7,8-dihydro-5H-pyrido[4,3-d]pyrimidin-6-yl]pyrimidin-4-amine] | 65 nM |  |
| CC1c2cnc(-c3ncccn3)nc2CCN1c1cc(OCCCC(=O)O)cc(F)n1 (single isomer, unassigned; (-)) [Example 184, (−)-4-[[2-fluoro-6-[5-methyl-2-pyrimidin-2-yl-7,8-dihydro-5H-pyrido[4,3-d]pyrimidin-6-yl]-4-pyridyl]oxy]butanoic acid] | 182 nM |  |
| CC1c2cnc(-c3ccccn3)nc2CCN1c1cc(OCCCCCC(=O)O)cc(F)n1 (stereo not shown) [Example 170, 6-[[2-fluoro-6-[5-methyl-2-(2-pyridyl)-7,8-dihydro-5H-pyrido[4,3-d]pyrimidin-6-yl]-4-pyridyl]oxy]hexanoic acid] | 16 nM |  |
| CC1c2cnc(-c3ncccn3)nc2CCN1c1cc(F)c(F)c(OCCCNC(=O)OC(C)(C)C)c1 (stereo not shown) [Example 90, tert-butyl N-[3-[2,3-difluoro-5-(5-methyl-2-pyrimidin-2-yl-7,8-dihydro-5H-pyrido[4,3-d]pyrimidin-6-yl)phenoxy]propyl]carbamate] | 22 nM |  |

| SMILES | IC50 [1] | IC50 (HepG2.2.15 cells) |
| --- | --- | --- |
| COc1cc(N2CCc3nc(-c4ccccn4)ncc3C2C[N+](=O)[O-])cc(F)c1F (stereo not shown) [Example 39, 6-(3,4-difluoro-5-methoxy-phenyl)-5-(nitromethyl)-2-(2-pyridyl)-7,8-dihydro-5H-pyrido[4,3-d]pyrimidine] | 1340 nM |  |
| CC1c2cnc(-c3ncccn3)nc2CCN1c1cc(F)c(F)c(OCC2CCOC2)c1 (stereo not shown) [Example 75, 6-[3,4-difluoro-5-(tetrahydrofuran-3-ylmethoxy)phenyl]-5-methyl-2-pyrimidin-2-yl-7,8-dihydro-5H-pyrido[4,3-d]pyrimidine] | 21 nM |  |
| CC1c2cnc(-c3ccccn3)nc2CCN1c1cc(F)cc(N2CCCCC2)n1 (stereo not shown) [Example 219, 6-[4-fluoro-6-(1-piperidyl)-2-pyridyl]-5-methyl-2-(2-pyridyl)-7,8-dihydro-5H-pyrido[4,3-d]pyrimidine] | 110 nM |  |
| CC1c2cnc(-c3ccccn3)nc2CCN1c1ccc(S(C)(=O)=O)cc1 (stereo not shown) [Example 23, 5-methyl-6-(4-methylsulfonylphenyl)-2-(2-pyridyl)-7,8-dihydro-5H-pyrido[4,3-d]pyrimidine] | 1490 nM |  |
| CC1c2cnc(-c3ncccn3)nc2CCN1c1cc(F)c(F)c(OCC2CC2(F)F)c1 (stereo not shown) [Example 82] | 30 nM |  |
| CC1c2cnc(-c3ccccn3)nc2CCN1c1cc(OCCCCCCC(=O)O)cc(F)n1 (stereo not shown) [Example 179, 7-[[2-fluoro-6-[5-methyl-2-(2-pyridyl)-7,8-dihydro-5H-pyrido[4,3-d]pyrimidin-6-yl]-4-pyridyl]oxy]heptanoic acid] | 29 nM |  |
| Cc1cc(F)cc(N2CCc3nc(-c4ncccn4)ncc3C2C)c1 (stereo not shown) [Example 134, 6-(3-fluoro-5-methyl-phenyl)-5-methyl-2-pyrimidin-2-yl-7,8-dihydro-5H-pyrido[4,3-d]pyrimidine] | 48 nM |  |
| CC1c2cnc(-c3ncccn3)nc2CCN1c1cc(OCC2CSC2)cc(F)n1 (stereo not shown) [Example 194, 6-[6-fluoro-4-(thietan-3-ylmethoxy)-2-pyridyl]-5-methyl-2-pyrimidin-2-yl-7,8-dihydro-5H-pyrido[4,3-d]pyrimidine] | 43 nM |  |
| CNC(=O)CCCOc1cc(N2CCc3nc(-c4ncccn4)ncc3C2C)cc(F)c1F (stereo not shown) [Example 53, 4-[2,3-difluoro-5-(5-methyl-2-pyrimidin-2-yl-7,8-dihydro-5H-pyrido[4,3-d]pyrimidin-6-yl)phenoxy]-N-methyl-butanamide] | 103 nM |  |
| CC1c2cnc(-c3ncccn3)nc2CCN1c1cc(F)cc(OCC(F)(F)F)c1 (stereo not shown) [Example 144, 6-[3-fluoro-5-(2,2,2-trifluoroethoxy)phenyl]-5-methyl-2-pyrimidin-2-yl-7,8-dihydro-5H-pyrido[4,3-d]pyrimidine] | 48 nM |  |
| CC1c2cnc(-c3ncccn3)nc2CCN1c1cc(F)cc(N2CCNCC2)n1 (stereo not shown) [Example 209, 6-(4-fluoro-6-piperazin-1-yl-2-pyridyl)-5-methyl-2-pyrimidin-2-yl-7,8-dihydro-5H-pyrido[4,3-d]pyrimidine] | 649 nM |  |
| CC1c2cnc(-c3ncccn3)nc2CCN1c1cc(F)cc(OC(F)(F)F)c1 (stereo not shown) [Example 133, 6-[3-fluoro-5-(trifluoromethoxy)phenyl]-5-methyl-2-pyrimidin-2-yl-7,8-dihydro-5H-pyrido[4,3-d]pyrimidine] | 1760 nM |  |
| CC1c2cnc(-c3ncccn3)nc2CCN1c1cc(F)c(F)c(OCCCCCCNC(=O)OC(C)(C)C)c1 (stereo not shown) [Example 58, tert-butyl N-[6-[2,3-difluoro-5-(5-methyl-2-pyrimidin-2-yl-7,8-dihydro-5H-pyrido[4,3-d]pyrimidin-6-yl)phenoxy]hexyl]carbamate] | 193 nM |  |
| CC1c2cnc(-c3ncccn3)nc2CCN1c1cc(F)c(F)c(OCCCCCCN)c1 (stereo not shown) [Example 59, 6-[2,3-difluoro-5-(5-methyl-2-pyrimidin-2-yl-7,8-dihydro-5H-pyrido[4,3-d]pyrimidin-6-yl)phenoxy]hexan-1-amine] |  | 75 nM |
| CC1c2cnc(-c3ncccn3)nc2CCN1c1cc(F)c(F)c(OCCCNC(=O)CCCCl)c1 (stereo not shown) [Example 95, 4-chloro-N-[3-[2,3-difluoro-5-(5-methyl-2-pyrimidin-2-yl-7,8-dihydro-5H-pyrido[4,3-d]pyrimidin-6-yl)phenoxy]propyl]butanamide] | 724 nM |  |
